Laboratory results published in ChEMBL document CHEMBL5365474, “Discovery of a First-in-Class CD38 Inhibitor for the Treatment of Mitochondrial Myopathy” (J Med Chem, 2023).
Values after ≈ are worked out from the molar mass of the structure shown.

Experiment: physchem
Settings: PBS, pH 7.4

Compound: O=C(Nc1cccnc1)c1cc(C(F)(F)F)nc(-n2ccnc2)n1
- solubility at 2 h: 48 µM (≈ 16 µg/mL)
